Assay [1] has as its system CD1 mice, controlled cortical impact (CCI) severe TBI model. The assay is described as follows: Pial intravital microscopy: in vivo LEU/EC interactions. Particulars: pial penumbral microcirculation, 48 hours after CCI, doses 0.5 and 24 hours after CCI, ±SEM. The procedure:
(§1) Procedures received approval from the University of Pennsylvania Institutional Animal Care and Use Committee. CD1 adult male mice (25-30 g) (Charles River Laboratories; Wilmington, Mass.) were acclimated in standard housing with ad libitum water and chow for 5 days before experiments and immediately after recovery from brain injury. Mice underwent controlled cortical impact (CCI) or sham craniotomy (SHAM) and then received one of three agents: 1) subcutaneous enoxaparin (ENX, 1.5 mg/kg) (Winthrop, Sanofi-Aventis; Bridgewater, N.J.); intravenous (femoral vein) pharmaceutical grade antithrombin-III (AT-III, 250 IU/kg, donated by Grifols S.A. (Durham, N.C.); or 3) an equal volume of IV normal saline (0.9% NS, Baxter; Deerfield, Ill.). Doses were administered 0.5 and 24 hours after the CCI (FIG. 1).
(§2) Seventy-one (71) mice were randomly assigned to one of six groups: 1) sham craniotomy and vehicle (VH, 0.9% normal saline, Baxter Healthcare Corporation; Deerfield, Ill.), (SHAM +VEH, n=9); 2) sham craniotomy and ENX (SHAM+ENX, n=8); 3) sham craniotomy and AT-III (SHAM+AT-III, n=9); 4) TBI and vehicle (CCI+VEH, n=19); TBI and ENX (CCI+ENX, n=13); and 6) TBI and AT-III (CCI+AT-III, n=13).
(§3) CCI was used to replicate TBI through a well-validated rodent model (16, 17). Briefly, on day 1, mice were anesthetized with intraperitoneal ketamine (Hospira; Lake Forest, Ill.), xylazine (Alcorn; Decatur, Ill.), and acepromazine (Boehringer Ingelheim; St. Joseph, Mo.) (KXA: 100, 10, 1 mg/kg, respectively) and place prone in a stereotactic device. After scalp exposure, a left-sided 4-mm craniotomy was created between bregma and lambda structures using a dental drill (Henry Schein; Melville, N.Y.) without violating the dura.
In vivo assessment of cerebral microcirculation using pial intravital microscopy was performed 48 hours after CCI as described previously, as this is the optimal time to observe peak leukocyte mobilization to the BBB penumbra after brain injury. Under KXA anesthesia, the right jugular vein was cannulated and a second 2.5 mm craniotomy was created immediately anterior to the first and covered with a 5 mm coverslip (Fisher Scientific; Waltham, Mass.). […]
Video data captured at 590 nm λ were imported into analysis software (NIS-Elements, Nikon Instruments; Melville, N.Y.) and LEU/EC interactions were counted by a blinded observer quantifying the following parameters: 1) LEU transit: mean number of labelled EU crossing a 100 μm long venular segment in 60 seconds; and 2) LEU adhesion: number of LEU stationary for at least 30 seconds during the recording period. Fluorescently labelled spherical cells measuring 7 to 12 μm were counted as LEU and interactions were reported as the number of cells/100 μm per minute (FIGS. 2A and 2B).

For assay [2] the test system is unchanged. The experiment in a line: Pial intravital microscopy: FITC-albumin leakage (microvascular permeability). It is filed as in vivo. Particulars: for Cerebrovascular FITC-albumin leakage: 48 hours after CCI, doses 0.5 and 24 hours after CCI, ±SEM. The protocol: as §1, §2
CCI was used to replicate TBI through a well-validated rodent model (16, 17). Briefly, on day 1, mice were anesthetized with intraperitoneal ketamine (Hospira; Lake Forest, Ill.), xylazine (Alcorn; Decatur, Ill.), and acepromazine (Boehringer Ingelheim; St. Joseph, Mo.) (KXA: 100, 10, 1 mg/kg, respectively) and place prone in a stereotactic device. After scalp exposure, a left-sided 4-mm craniotomy was created between bregma and lambda structures using a dental drill (Henry Schein; Melville, N.Y.) without violating the dura. […]
Footage captured under the 488 nm filter was evaluated for fluorescence intensity from FITC-labelled albumin measured in three distinct regions within the vessel (venular intensity) and outside the vessel walls (perivenular intensity) (FIGS. 3A and 3B). […]

In assay [3] the test system is CD1 mice, controlled cortical impact (CCI) or sham craniotomy. The experiment in a line: Brain water content (brain edema, wet-to-dry ratio). Particulars: for Contralateral (%) Mean brain water content / Contralateral (%) Median brain water content / Ipsilateral (%) Mean brain water content / Ipsilateral (%) Median brain water content / Ratio (ipsi/contra) brain water content: 48 hours after CCI; for cerebral edema as compared to CCI+VEH: 48 hours, p>0.05. It is filed as in vivo. The protocol:
as §1, §2, §3
Forty-eight hours after CCI, mice were sacrificed and excised brains were separated into injured (ipsilateral) and uninjured (contralateral) hemispheres. Wet weight (WW) was immediately assessed. Dry weight (DW) was assessed after 72 hours of dehydration at 70° C. Tissue water content was calculated using wet-to-dry ratios: % water content=100×(WW−DW)/WW.

A short description of assay [4]: Body weight loss after CCI. The format is in vivo. Particulars: CCI mice, 48 hours after TBI; (W0h-W48h)/W0h×100%; ±SEM. The protocol:
as §1, with “1). […]” for “1).”
(§4) Animal body weights (BW) were obtained just before (W0h) as well as 24 and 48 hours after CCI with animal weight loss expressed as a ratio: (W0h-W24h or W48h)/W0h×100%. Murine neurologic function was assessed by the modified Stroke Garcia Neurologic Test (GNT) assessing motor, sensory, reflex, and balance ability at 24 hours and 48 hours after TBI. […]

The subject of assay [5] is CD1 mice, controlled cortical impact (CCI) severe TBI model. The assay is described as follows: Garcia Neurological Test (GNT). It is filed as in vivo. Particulars: injured (CCI) mice, 24 or 48 hour post-TBI; maximum 18 points; ±SEM. The procedure:
as §1, with “1). […]” for “1).”
as §4

The test system is the same in assay [6]. The experiment in a line: Morris water maze cued learning trials. It is filed as in vivo. The protocol: (§5) Experimental procedures were conducted with the approval of the University of Pennsylvania Institutional Animal Care and Use Committee. CD1 adult male mice (25-30 g) (Charles River Laboratories, Wilmington, Mass.) were acclimatized in standard housing with water and chow ad libitum for 7 days before experiments after which they underwent sham craniotomy or craniotomy accompanied by controlled cortical impact (CCI), a well-validated severe TBI rodent model (Pascual et al., Am J Surg. 2013;206(6):840-846; Smith et al., J Neurotrauma. 1995; 12(2):169-178). Mice were anesthetized with intraperitoneal ketamine (Hospira, Lake Forest, Ill.), xylazine (Akorn, Decatur, Ill.), and acepromazine (Boehringer Ingelheim, St. Joseph, Mo.) (100, 10, 1 mg/kg, respectively) followed by subcutaneous bupivacaine (0.5 mg/mL) for longer-term analgesia. After creation of a left-sided, 4-mm craniotomy between bregma and lambda sutures, the exposed left parietotemporal cortex was injured via a controlled cortical impactor (AMS201; AmScien Instruments, Richmond, Va.). Controlled cortical impact settings (3-mm-diameter impactor tip, impact velocity of 6 m/s, and cortical deformation depth of 1 mm) replicated severe TBI (Smith et al., J Neurotrauma. 1995; 12(2):169-178). Rodents were then randomly allocated to receive either: (1) intravenous (via femoral vein) pharmaceutical grade AT-III (250 IU/kg, donated by Grifols S. A., Durham, N.C.) or (2) an equal volume of normal saline IV (0.9% NS; Baxter; Deerfield, Ill.) as a vehicle (VEH). Doses were administered 0.5 and 24 hours after CCI (FIG. 1) as determined by previous published reports and the manufacturer's recommendations (ElSaadani et al., J Trauma Acute Care Surg. 2021; 90(2):274-280; Uchiba et al., Thromb Res. 1998; 89(5):233-241; Uchiba et al., Semin Thromb Hemost. 1997; 23(6):583-590).
Fifteen mice (ElSaadani et al., J Trauma Acute Care Surg. 2021; 90(2):274-280) were randomized into three groups: (1) sham craniotomy (no CCI) plus VEH (SHAM, n=5), (2) TBI and VEH (CCI-VEH, n=5), and (3) TBI and AT-III (CCI−AT-III, n=5).
Learning and memory were evaluated in a Morris water maze (MWM) using a previously published protocol (Vorhees et al., Nat Protoc. 2006; 1(2):848-858; Jacovides et al., J Trauma Acute Care Surg. 2019; 87(3):552-558). After a recovery period of 6 days, each animal underwent daily. MWM trials of learning and memory for 9 consecutive days. […] All swimming trials were conducted and scored by the same operator, at the same time of day on all experiment days incorporating a computerized video-tracking and recording system over the pool to facilitate analysis (Ethovision; Noldus, Leesburg, Va.). […]

For assay [7] the test system is unchanged. The experiment in a line: Morris water maze spatial learning trials. The format is in vivo. Particulars: ±SEM. The protocol: as §5, with “Controlled cortical impact settings (3-mm-diameter impactor tip, impact velocity of 6 m/s, and cortical deformation depth of 1 mm) replicated severe TBI (Smith et al., J Neurotrauma. 1995; 12(2):169-178). Rodents were then randomly allocated to receive either: (1) intravenous (via femoral vein) pharmaceutical grade AT-III (250 IU/kg, donated by Grifols S. A., Durham, N.C.) or (2) an equal volume of normal saline IV (0.9% NS; Baxter; Deerfield, Ill.) as a vehicle (VEH).” left out, “23(6):583-590). […]” for “23(6):583-590).”
(§6) Learning and memory were evaluated in a Morris water maze (MWM) using a previously published protocol (Vorhees et al., Nat Protoc. 2006; 1(2):848-858; Jacovides et al., J Trauma Acute Care Surg. 2019; 87(3):552-558). […] All swimming trials were conducted and scored by the same operator, at the same time of day on all experiment days incorporating a computerized video-tracking and recording system over the pool to facilitate analysis (Ethovision; Noldus, Leesburg, Va.). […]
On postcraniotomy days 9 to 13, daily spatial learning trials evaluated the animals' ability to use environmental visual cues to locate and reach the platform. […]

For assay [8] the test system is unchanged. The experiment in a line: Morris water maze probe trials (long-term memory). The format is in vivo. Particulars: days 10 to 14 post-TBI, CCI mice vs CCI-VEH. The procedure:
Experimental procedures were conducted with the approval of the University of Pennsylvania Institutional Animal Care and Use Committee. CD1 adult male mice (25-30 g) (Charles River Laboratories, Wilmington, Mass.) were acclimatized in standard housing with water and chow ad libitum for 7 days before experiments after which they underwent sham craniotomy or craniotomy accompanied by controlled cortical impact (CCI), a well-validated severe TBI rodent model (Pascual et al., Am J Surg. 2013;206(6):840-846; Smith et al., J Neurotrauma. 1995; 12(2):169-178). […] Doses were administered 0.5 and 24 hours after CCI (FIG. 1) as determined by previous published reports and the manufacturer's recommendations (ElSaadani et al., J Trauma Acute Care Surg. 2021; 90(2):274-280; Uchiba et al., Thromb Res. 1998; 89(5):233-241; Uchiba et al., Semin Thromb Hemost. 1997; 23(6):583-590). […]
as §6

In assay [1], antithrombin-III [AT-III] displayed an LEU adhesion of 3.2±0.5 LEUs/100 um/min and an LEU transit of 24.8±2.1 LEUs/100 um/min. Besides, the “Cerebrovascular FITC-albumin leakage” value in assay [2] is listed as 41.9±2.8%. Moreover, the “decrease of macromolecular leakage (blood brain barrier integrity)” value in assay [2] (pial vessels, vs untreated injured) is on record as “more than 25%”. Besides, in assay [3], the “Contralateral (%) Mean brain water content” value is on record as 75.12%, the “Contralateral (%) Median brain water content” value was found to be 77.7%, the “Ipsilateral (%) Mean brain water content” value is 77.64% and the “Ipsilateral (%) Median brain water content” value was 78.6192%. In assay [3], the “Ratio (ipsi/contra) brain water content” value was 1.033 and the “cerebral edema as compared to CCI+VEH” value is listed as “did not significantly reduce cerebral edema”. Further, the Body weight loss in assay [4] is recorded as 8.4±1%. The “GNT score (stroke functional recovery score)” value in assay [5] is on record as 13.1±0.3. Besides, the “time to reach the exposed platform, course over days” value in assay [6] (cued learning trials, compared with SHAM) is reported as “eventually reached SHAM times by day 7”. The same substance returned a swimming velocity in assay [6] (cued learning trials, days 6-8 post-TBI, ±SEM) of 28.4 ± 1.1 cm/s. The “mean time to reach the platform” value in assay [6] (cued learning trials, ±SEM) amounted to 20.1 ± 3.1 s. The “cumulative cued learning (overall mean group time to reach the platform)” value in assay [6] (throughout days 6 to 8 post-TBI, ±SEM) is 20.3 ± 2.1 s. Further, the “mean group cumulative swimming time” value in assay [7] (all 5 days of spatial learning trials, CCI mice) was determined as 17.6 ± 1.5 s. Besides, the “swimming time (time to reach platform)” value in assay [7] (day 13, last day of spatial learning trials, CCI mice) is 17.6 ± 3.9 s. Further, the overall swim distance in assay [7] (spatial learning trials, days 9 to 13, CCI mice) is listed as 306.9±27.9 cm. Further, in assay [8], the “cognitive recovery: memory” value is “not memory”.
In assay [1], enoxaparin [ENX, reference compound] showed an LEU adhesion of 3.5±0.8 LEUs/100 um/min and an LEU transit of 24.9±2.8 LEUs/100 um/min. For the same substance, in assay [2], the “Cerebrovascular FITC-albumin leakage” value came to 49.1±2.3%. In assay [3], the “Contralateral (%) Mean brain water content” value is on record as 77.26%, the “Contralateral (%) Median brain water content” value is 77.38%, the “Ipsilateral (%) Mean brain water content” value is given as 78.3674% and the “Ipsilateral (%) Median brain water content” value was determined as 79.03%. For the same substance, in assay [3], the “Ratio (ipsi/contra) brain water content” value came out at 1.014 and the “cerebral edema as compared to CCI+VEH” value is “did not significantly reduce cerebral edema”. Also, the “GNT score (stroke functional recovery score)” value in assay [5] was determined as 12.4±0.4.

Values taken from patent US20220125897A1, “Antithrombin-III Treatment of Traumatic Brain Injury” (THE TRUSTEES OF THE UNIVERSITY OF PENNSYLVANIA, priority 2020, published 2022).
